Values of other authors, collected in patent US20090017139A1, “Iodine therapy dosing for treating medical conditions” (priority 2007, published 2009).

Experiments:
[1] = male rats, 100 days; cited from earlier work
[2] = perchlorate 6 mg i.p., 2 hr predosing; cited from earlier work
[3] = 1.5 to more than 10 g/day for weeks at a time; cited from earlier work
[4] = system: school age children; details: 11 mg/d, 2.5 years later; cited from earlier work

I [iodide, reference compound]
thyroid size [1]: Significant increases in thyroid size
reduction of thyroidal uptake by perchlorate [2]: more than 90%

[I-].[K+] [potassium iodide]
side effects [3]: few side effects are reported

[I-].[Na+] [sodium iodide]
incidence of goiter [4]: 0.2%
